According to US8067442B2, “Heterocyclic antiviral compounds” (Roche Palo Alto LLC, priority 2008, dated 2011):

biological target: T1, HCV polymerase (NS5B570n-Con1) (Hepatitis C virus genotype 1b, UniProt Q9WMX2); assay: biochemical; set-up: species or system HCV Con1 strain
T1 construct: a 21 amino acid C-terminal deletion of full-length HCV polymerase; made in house; host or cells: E. coli BL21(DE3) pLysS, plasmid pET17b
Description: The enzymatic activity of HCV polymerase (NS5B570n-Con1) was measured as the incorporation of radiolabeled nucleotide monophosphates into acid insoluble RNA products. Unincorporated radiolabeled substrate was removed by filtration and scintillant was added to the washed and dried filter plate containing radiolabeled RNA product. The amount of RNA product generated by NS5B570n-Con1 at the end of the reaction was directly proportional to the amount of light emitted by the scintillant.
The HCV polymerase used in the enzymatic activity assay is a 21 amino acid C-terminal deletion of full-length HCV polymerase derived from HCV Con1 strain, genotype 1b (GenBank accession number AJ242654) (NS5B570n-Con1). The NS5B570n-Con1 was sub-cloned downstream to the T7 promoter of the plasmid expression construct pET17b and transformed into E. coli strain BL21(DE3) pLysS for protein expression. A single colony was used to start an innoculum for a 10 L culture in LB media supplemented with 100 μg/mL ampicillin at 37° C. Protein expression was induced by the addition of 0.25 mM isopropyl-β-D-thiogalactopyranoside (IPTG) when the optical density of the culture at […] was 0.8. Induction of protein expression was carried out at 30° C. for 16 h after which the cells were harvested by centrifugation. NS5B570n-Con1 was purified to homogeneity using a three-column purification protocol including subsequent column chromatography on Ni-NTA, SP-Sepharose HP and Superdex 75 resins.
Enzymatic reactions in the presence of cIRES RNA template (see section [0300]) contained 20 nM cIRES RNA, 20 nM NS5B570n-Con1 enzyme, 0.5 μCi of tritiated UTP (Perkin Elmer catalog no. TRK-412; specific activity: 30 to 60 Ci/mmol), 1 μM each ATP, CTP, and GTP, 40 mM Tris-HCl pH 8.0, 40 mM NaCl, 4 mM DTT (dithiothreitol), 4 mM MgCl2, 5 μl of compound serial diluted in DMSO, and nuclease-free water to a final reaction volume of 50 μl. Enzymatic reactions in the presence of 20 nM cIRES template, 20 nM NS5B570n-Con1 enzyme, 1 μCi of tritiated UTP (Perkin Elmer catalog no. TRK-412; specific activity: 30 to 60 Ci/mmol), 40 mM Tris-HCl pH 8.0, 40 mM NaCl, 4 mM DTT (dithiothreitol), 4 mM MgCl2, 5 μl of compound serial diluted in DMSO, and nuclease-free water to a final reaction volume of 50 μl. Reaction mixtures were assembled in 96-well filter plates (cat #MADVNOB, Millipore Co.) and incubated for 2 h at 30° C. Reactions were stopped by addition of 10% final (v/v) trichloroacetic acid and incubated for 40 min at 4° C. Reactions were filtered, washed with 8 reaction volumes of 10% (v/v) trichloroacetic acetic acid, 4 reaction volumes of 70% (v/v) ethanol, air dried, and 25 μl of scintillant (Microscint 20, Perkin-Elmer) was added to each reaction well.
Two RNA templates can be used to assay compounds described herein. The cIRES RNA template is 377 nucleotide long and consisting of a partial complementary sequence (36 nucleotides) of the core protein, followed by 341 nucleotide of the complementary sequence of the internal ribosome entry site. The poly A RNA template (GE Amersham catalog number 27-4110) was a homopolymeric RNA pre-annealed to a oligo(rU)16 primer at a molar ratio of 3-to-1 (primer-template). The cIRES template was used in the assay unless otherwise noted.
The amount of light emitted from the scintillant was converted to counts per minute (CPM) on a Topcount® plate reader (Perkin-Elmer, Energy Range: Low, Efficiency Mode Normal, Count Time: 1 min, Background Subtract: none, Cross talk reduction: Off).
Data was analyzed in Excel® (Microsoft®) and ActivityBase® (Idbs®). The reaction in the absence of enzyme was used to determine the background signal, which was subtracted from the enzymatic reactions. […] All data was expressed as a percentage of the positive control. The compound concentration at which the enzyme-catalyzed rate of RNA synthesis was reduced by 50% (IC50) was calculated by fitting

| SMILES | IC50 |
| --- | --- |
| CC(C)(C)OC(=O)N[C@@H]1CCCN(C(=O)c2coc3c(C(C)(C)C)cc(-c4ccc[nH]c4=O)cc23)C1 [Compound I-38] | 132 nM |
| CC(C)(C)c1cc(-c2ccc[nH]c2=O)cc2c(-c3ccc(C#N)cc3)coc12 [Compound I-35] | 72 nM |
| CC(C)(C)c1cc(-c2ccc[nH]c2=O)cc2c(C(=O)NC3(CO)CCCC3)coc12 [Compound I-18] | 4800 nM |
| CC(C)(C)c1cc(-c2ccc[nH]c2=O)cc2c(C(=O)N3CCOC(CNS(C)(=O)=O)C3)csc12 (centres unmarked) [Compound 112, N-{4-[7-tert-Butyl-5-(2-oxo-1,2-dihydro-pyridin-3-yl)-benzo[b]thiophene-3-carbonyl]-morpholin-2-ylmethyl}-methanesulfonamide] | 4 nM |
| CC(C)(C)c1cc(-c2ccc[nH]c2=O)cc2c(C(=O)N3CCCC(CO)C3)coc12 (centres unmarked) [Compound I-14] | 66 nM |
| CC(C)CN(C)C(=O)c1coc2c(C(C)(C)C)cc(-c3ccc[nH]c3=O)cc12 [Compound I-11] | 475 nM |
| CC(C)(C)c1cc(-c2ccc[nH]c2=O)cc2c(C(=O)N3CCCCC3)coc12 [Compound I-13] | 48 nM |
| CC(C)(C)c1cc(-c2ccc[nH]c2=O)cc2c(C(=O)N3CCC(O)CC3)coc12 [Compound I-12] | 63 nM |
| CC1(C)CCCN(C(=O)c2coc3c(C(C)(C)C)cc(-c4ccc[nH]c4=O)cc23)C1 [Compound I-69] | 831 nM |
| CC(C)(C)c1cc(-c2ccc[nH]c2=O)cc2c(-c3cccc(CN)c3)coc12 [Compound I-62] | 893 nM |
| CN(C)[C@@H]1CCN(C(=O)c2coc3c(C(C)(C)C)cc(-c4ccc[nH]c4=O)cc23)C1 [Compound I-67] | 889 nM |
| CC(C)(C)c1cc(-c2ccc[nH]c2=O)cc2c(C(=O)N3CCC(NC(=O)C(F)(F)F)CC3)coc12 [Compound I-55] | 2280 nM |
| CC(C)(C)c1cc(-c2ccc[nH]c2=O)cc2c(C(=O)N3CCC(CO)C3)coc12 (centres unmarked) [Compound I-70] | 53 nM |
| CC(C)(C)c1cc(-c2ccc[nH]c2=O)cc2c(C(=O)N3CCC[C@H](NS(C)(=O)=O)C3)coc12 [Compound I-47] | 172 nM |
| CCN(CCOC)C(=O)c1coc2c(C(C)(C)C)cc(-c3ccc[nH]c3=O)cc12 [Compound I-25] | 1330 nM |
| COc1cccc(C(=O)c2coc3c(C(C)(C)C)cc(-c4ccc[nH]c4=O)cc23)c1 [Compound I-30, 3-[7-tert-Butyl-3-(3-methoxy-benzoyl)-benzofuran-5-yl]-1H-pyridin-2-one] | 329 nM |
| CC(C)(C)c1cc(-c2ccc[nH]c2=O)cc2c(C(=O)O)coc12 [Compound I-4, 7-tert-butyl-5-(2-oxo-1,2-dihydro-pyridin-3-yl)-benzofuran-3-carboxylic acid] | 381 nM |
| CC(C)(C)c1cc(-c2ccc[nH]c2=O)cc2c(C(=O)N3CCCC(C(N)=O)C3)coc12 (centres unmarked) [Compound I-61] | 66 nM |
| CC(C)(C)c1cc(-c2ccc[nH]c2=O)cc2c(C(=O)N3CCC(F)(F)CC3)coc12 [Compound I-68] | 597 nM |
| COC(=O)[C@@H]1C[C@@H](O)CN1C(=O)c1coc2c(C(C)(C)C)cc(-c3ccc[nH]c3=O)cc12 [Compound I-63] | 1610 nM |
| CC(C)(C)c1cc(-c2ccc[nH]c2=O)cc2c(C(=O)N3CCCC3)coc12 [Compound I-51] | 12 nM |
| CC(C)(C)c1cc(-c2ccc[nH]c2=O)cc2c(C(=O)N3CCNCC3)coc12 [Compound I-28] | 1940 nM |

| SMILES | IC50 |
| --- | --- |
| Cn1cc(C#N)c2cc(-c3ccc[nH]c3=O)cc(C(C)(C)C)c21 [Compound I-110] | 314 nM |
| CC(C)(C)c1cc(-c2ccc[nH]c2=O)cc2c(C(=O)Nc3ccccc3)coc12 [Compound I-23] | 425 nM |
| CN(C)[C@H]1CCN(C(=O)c2coc3c(C(C)(C)C)cc(-c4ccc[nH]c4=O)cc23)C1 [Compound I-53] | 454 nM |
| CC(C)(C)OC(=O)N[C@H]1CCCN(C(=O)c2coc3c(C(C)(C)C)cc(-c4ccc[nH]c4=O)cc23)C1 [Compound I-40] | 1410 nM |
| CC(C)(C)c1cc(-c2ccc[nH]c2=O)cc2c(C(=O)N3CC[C@@H](CNS(C)(=O)=O)C3)coc12 [Compound I-73, N-{(R)-1-[7-tert-Butyl-5-(2-oxo-1,2-dihydro-pyridin-3-yl)-benzofuran-3-carbonyl]-pyrrolidin-3-ylmethyl}-methanesulfonamide] | 21 nM |
| CC(C)(C)c1cc(-c2ccc[nH]c2=O)cc2c(C(=O)N3CCC(O)C3)coc12 (centres unmarked) [Compound I-65] | 126 nM |
| CC(C)(C)c1cc(-c2ncc[nH]c2=O)cc2c(C(=O)N3CCOC(CNS(C)(=O)=O)C3)coc12 (centres unmarked) [Compound 100, N-{4-[7-tert-Butyl-5-(3-oxo-3,4-dihydro-pyrazin-2-yl)-benzofuran-3-carbonyl]-morpholin-2-ylmethyl}-methanesulfonamide] | 28 nM |
| CC(C)(C)c1cc(-c2ccc[nH]c2=O)cc2c(C(=O)N3CCC(C(N)=O)CC3)coc12 [Compound I-58] | 282 nM |
| CC(C)(C)c1cc(-c2ccc[nH]c2=O)cc2c(C(=O)N3CCCC(CCS(C)(=O)=O)C3)coc12 (centres unmarked) [Compound 132, 3-{7-tert-Butyl-3-[3-(2-methanesulfonyl-ethyl)-piperidine-1-carbonyl]-benzofuran-5-yl}-1H-pyridin-2-one] | 29 nM |
| CC(C)(C)c1cc(-c2ccc[nH]c2=O)cc2c(-c3cccc(C#N)c3)coc12 [Compound I-32] | 38 nM |
| CCOC(=O)c1coc2c(C(C)(C)C)cc(-c3ccc[nH]c3=O)cc12 [Compound I-3, 7-tert-butyl-5-(2-oxo-1,2-dihydro-pyridin-3-yl)-benzofuran-3-carboxylic acid ethyl ester] | 258 nM |
| CC(C)(C)c1cc(-c2ccc[nH]c2=O)cc2c(C(=O)N3CCC(O)(C(N)=O)CC3)coc12 [Compound I-64] | 97 nM |
| Cc1ccsc1C(=O)c1coc2c(C(C)(C)C)cc(-c3ccc[nH]c3=O)cc12 [Compound I-31] | 69 nM |
| CC(C)(C)c1cc(-c2ccc[nH]c2=O)cc2c(C(=O)N3CCSC3)coc12 [Compound I-71] | 50 nM |
| CCNC1(C(N)=O)CCN(C(=O)c2coc3c(C(C)(C)C)cc(-c4ccc[nH]c4=O)cc23)CC1 [Compound I-66] | 134 nM |
| CC(C)(C)OC(=O)NCC1CCN(C(=O)c2coc3c(C(C)(C)C)cc(-c4ccc[nH]c4=O)cc23)C1 (centres unmarked) [Compound I-45] | 76 nM |
| CC(C)(C)c1cc(-c2ccc[nH]c2=O)cc2c(-c3ccc(CNS(C)(=O)=O)nc3)coc12 [Compound I-93, N-{5-[7-tert-Butyl-5-(2-oxo-1,2-dihydro-pyridin-3-yl)-benzofuran-3-yl]-pyridin-2-ylmethyl}-methanesulfonamide] | 12 nM |
| CC(C)(C)c1cc(-c2ccc[nH]c2=O)cc2c(C(=O)N3CCC(NC(=O)C(F)(F)F)C3)coc12 (centres unmarked) [Compound I-60] | 51 nM |
| CC(C)(C)OC(=O)NC1CCN(C(=O)c2coc3c(C(C)(C)C)cc(-c4ccc[nH]c4=O)cc23)CC1 [Compound I-39] | 4370 nM |
| CNC(=O)c1coc2c(C(C)(C)C)cc(-c3ccc[nH]c3=O)cc12 [Compound I-22] | 770 nM |
| CC(C)(C)c1cc(-c2ccc[nH]c2=O)cc2c(C(=O)N3CCOCC3)coc12 [Compound I-7] | 142 nM |
| CC(=O)NC[C@H]1CCN(C(=O)c2coc3c(C(C)(C)C)cc(-c4ccc[nH]c4=O)cc23)C1 [Compound I-75] | 197 nM |
